Values quoted from earlier work as cited in patent publication US9884022B2, “Controlled release pharmaceutical compositions of tapentadol” (LUPIN LIMITED, priority 2010, dated 2018).

Details: background statement on immediate release compositions

In the case of `CCC(c1cccc(O)c1)C(C)CN(C)C` (stereo not shown) [tapentadol, 3-(3-dimethylamino-1-ethyl-2-methyl-propyl) phenol], the half life is given as 4 h.
